Data taken from US20220281821A1, “INDAZOLE COMPOUNDS AND THEIR PHARMACEUTICAL COMPOSITIONS” (Jinan University, priority 2019, published 2022).

Tests used:
BaF3-ETV6-NTRK2 = target: T1, BaF3-ETV6-NTRK2 (Homo sapiens, UniProt Q16620); assay: Cell proliferation inhibition (CCK-8), BaF3-ETV6-NTRK2 stable strain; type: cell-based, mouse; conditions: BaF3-ETV6-NTRK2, 72 hours
T1 construct: fused on or other part: P41212 (Transcription factor ETV6)
Protocol: (§1) The brief steps of stable strain construction are as follows: construct a pCDNA3.1(+) plasmid vector carrying genes such as CD74-NTRK1, ETV6-NTRK2 and ETV6-NTRK3; the plasmid was electroporated into Ba/F3 cells using the Amaxa® Cell Line Nucleofector® Kit V; 48 hours after electroporated, G418 with a final concentration of 1000 μg/ml was added for screening for two weeks, and then IL3 was removed, and continued screening to obtain polyclonal stable strains; then single clones were selected by a limiting dilution method. The stable strains were then identified using positive drugs, WB and gene sequencing; and the monoclonal clones that were identified as completely correct may be used for the study of cell proliferation inhibitory activity of inhibitors.
(§2) Cell proliferation inhibition activity study: the cells in the logarithmic growth phase were seeded into 96-well plates at 8000-12000 cells/well, and inhibitors at different concentrations (0-10 μM) were added the next day, and incubation was continued for 72 hours; then 10 μL of CCK-8 reagent was added to each well, and the incubation was continued for 1-3 hours; and then use a super microplate reader to measure their absorbance values at 450 nm and 650 nm. The half-inhibition concentration (IC50) was calculated using GraphPad Prism 8.0.0.

BaF3-ETV6-NTRK3 = target: T2, BaF3-ETV6-NTRK3 (Homo sapiens, UniProt Q16288); assay: Cell proliferation inhibition (CCK-8), BaF3-ETV6-NTRK3 stable strain; type: cell-based, mouse; conditions: BaF3-ETV6-NTRK3, 72 hours
T2 construct: fused on or other part: P41212 (Transcription factor ETV6)
Protocol: as §1, §2

TRKB = target: T3, TRKB (Homo sapiens, UniProt Q16620); assay: Z′-LYTE kinase activity assay, TRKB; type: biochemical; conditions: ATP 25 uM
T3 construct: purchased life technologies PV3616
Excerpt: (§3) Kinase activity assay: Z′-LYTE™ technology (detection by fluorescence, enzyme-conjugated format, based on the difference in sensitivity of phosphorylated and non-phosphorylated peptides to proteolytic cleavage) was applied, and using the principle of fluorescence resonance energy transfer (FRET), a Z′-LYTE™ FRET peptide substrate (Z′-LYTE™ Tyrosine 1 Peptide Substrate, Invitrogen, PV3190), and a secondary reaction were used to detect the inhibitory activity of the compounds on TRKs (TRK1, TRK2, TRK3) (life technologies, PV3144, PV3616, PV3617).
(§4) Enzymatic reaction: In a 384-well plate, 5 μL of an enzyme-substrate system (50 mM HEPES pH 7.5, 0.01% BRIJ-35, 10 mM MgCl2, 1 mM EGTA, 2 μM Tyr 01 Peptide Substrate) was added and 5 nL of compound (concentration gradient) was transferred thereto by using the echo520 ultramicro liquid pipetting system. […] After shaking and mixing, centrifuging was performed. A reaction was carried out at 30° C. in the dark for 1.5 hours.
(§5) The data were analyzed as follows:
(§6) Phosphorylation ratio=1−{(emission ratio×F100%−C100%)/[C0%−C100%+emission ratio×(F100%−F0%)]}×100;
(§7) Inhibition rate=100×(1−compound phosphorylation ratio/negative control phosphorylation ratio).
(§8) IC50 values were calculated by using GraphPad Prism 5.0 software.

BaF3-CD74-NTRK1 = target: T4, BaF3-CD74-NTRK1 (Homo sapiens, UniProt P04629); assay: Cell proliferation inhibition (CCK-8), BaF3-CD74-NTRK1 stable strain; type: cell-based, mouse; conditions: BaF3-CD74-NTRK1, 72 hours
T4 construct: fused on or other part: P04233 (HLA class II histocompatibility antigen gamma chain)
Protocol: as §1, §2

TRKA = target: T5, TRKA (Homo sapiens, UniProt P04629); assay: Z′-LYTE kinase activity assay, TRKA; type: biochemical; conditions: ATP 400 uM
T5 construct: purchased life technologies PV3144
Excerpt: as §3, §4, §5, §6, §7, §8

TRKC = target: T6, TRKC (Homo sapiens, UniProt Q16288); assay: Z′-LYTE kinase activity assay, TRKC; type: biochemical; conditions: ATP 50 uM
T6 construct: purchased life technologies PV3617
Excerpt: as §3, §4, §5, §8

T6 sequence (Q16288 32-839): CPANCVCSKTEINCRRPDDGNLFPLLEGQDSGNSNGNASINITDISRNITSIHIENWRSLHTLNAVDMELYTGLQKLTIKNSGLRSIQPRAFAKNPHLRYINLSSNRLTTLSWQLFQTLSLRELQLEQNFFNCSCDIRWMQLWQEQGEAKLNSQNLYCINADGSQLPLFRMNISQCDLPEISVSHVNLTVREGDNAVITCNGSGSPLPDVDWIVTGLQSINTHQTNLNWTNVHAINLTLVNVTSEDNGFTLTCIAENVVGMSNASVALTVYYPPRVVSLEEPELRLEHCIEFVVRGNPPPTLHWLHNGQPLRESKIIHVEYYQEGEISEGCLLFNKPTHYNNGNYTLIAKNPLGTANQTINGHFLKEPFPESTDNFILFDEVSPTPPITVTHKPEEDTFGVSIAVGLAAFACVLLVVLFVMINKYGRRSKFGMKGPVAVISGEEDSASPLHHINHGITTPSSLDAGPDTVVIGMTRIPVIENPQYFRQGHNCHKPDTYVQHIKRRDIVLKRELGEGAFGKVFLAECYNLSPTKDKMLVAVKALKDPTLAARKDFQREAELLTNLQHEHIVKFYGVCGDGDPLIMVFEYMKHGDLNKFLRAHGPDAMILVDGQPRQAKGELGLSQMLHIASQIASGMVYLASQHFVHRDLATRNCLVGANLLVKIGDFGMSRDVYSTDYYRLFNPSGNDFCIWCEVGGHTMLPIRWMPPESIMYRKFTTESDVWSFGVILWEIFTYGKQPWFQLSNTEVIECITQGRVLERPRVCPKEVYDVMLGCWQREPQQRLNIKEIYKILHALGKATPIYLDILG
T3 sequence (Q16620 32-822): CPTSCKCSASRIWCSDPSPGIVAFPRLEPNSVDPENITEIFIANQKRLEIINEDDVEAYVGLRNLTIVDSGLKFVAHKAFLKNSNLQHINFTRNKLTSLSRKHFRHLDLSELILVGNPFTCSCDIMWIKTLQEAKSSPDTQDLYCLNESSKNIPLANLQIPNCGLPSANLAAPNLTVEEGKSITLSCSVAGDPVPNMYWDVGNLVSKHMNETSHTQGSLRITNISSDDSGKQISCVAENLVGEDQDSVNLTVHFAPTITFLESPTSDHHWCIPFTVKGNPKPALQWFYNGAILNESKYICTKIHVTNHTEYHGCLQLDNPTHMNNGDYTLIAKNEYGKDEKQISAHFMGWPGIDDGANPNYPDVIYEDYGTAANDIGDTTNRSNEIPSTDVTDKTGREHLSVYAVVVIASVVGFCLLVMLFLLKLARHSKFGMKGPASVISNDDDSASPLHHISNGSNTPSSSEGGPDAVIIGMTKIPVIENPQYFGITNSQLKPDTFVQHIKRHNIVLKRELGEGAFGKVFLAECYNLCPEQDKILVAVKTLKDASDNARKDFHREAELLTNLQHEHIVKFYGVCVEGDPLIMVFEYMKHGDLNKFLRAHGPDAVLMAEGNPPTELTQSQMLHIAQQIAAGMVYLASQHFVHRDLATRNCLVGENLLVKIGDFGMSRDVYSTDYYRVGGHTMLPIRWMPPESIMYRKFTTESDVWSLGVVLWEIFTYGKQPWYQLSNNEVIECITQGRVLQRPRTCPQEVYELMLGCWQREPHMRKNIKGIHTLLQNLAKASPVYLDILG
T5 sequence (P04629 440-796 limits assumed): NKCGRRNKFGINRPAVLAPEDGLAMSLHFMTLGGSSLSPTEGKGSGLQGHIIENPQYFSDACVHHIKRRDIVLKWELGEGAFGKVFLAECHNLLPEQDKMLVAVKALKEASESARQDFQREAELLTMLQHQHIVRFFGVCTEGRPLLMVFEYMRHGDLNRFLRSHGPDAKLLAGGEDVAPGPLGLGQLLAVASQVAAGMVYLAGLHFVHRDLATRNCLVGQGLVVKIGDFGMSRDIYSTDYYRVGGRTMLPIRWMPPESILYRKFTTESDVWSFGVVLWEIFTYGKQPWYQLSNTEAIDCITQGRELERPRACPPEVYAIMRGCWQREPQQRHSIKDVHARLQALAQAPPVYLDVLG
T2 sequence (Q16288 whole entry, the tested form may be a part): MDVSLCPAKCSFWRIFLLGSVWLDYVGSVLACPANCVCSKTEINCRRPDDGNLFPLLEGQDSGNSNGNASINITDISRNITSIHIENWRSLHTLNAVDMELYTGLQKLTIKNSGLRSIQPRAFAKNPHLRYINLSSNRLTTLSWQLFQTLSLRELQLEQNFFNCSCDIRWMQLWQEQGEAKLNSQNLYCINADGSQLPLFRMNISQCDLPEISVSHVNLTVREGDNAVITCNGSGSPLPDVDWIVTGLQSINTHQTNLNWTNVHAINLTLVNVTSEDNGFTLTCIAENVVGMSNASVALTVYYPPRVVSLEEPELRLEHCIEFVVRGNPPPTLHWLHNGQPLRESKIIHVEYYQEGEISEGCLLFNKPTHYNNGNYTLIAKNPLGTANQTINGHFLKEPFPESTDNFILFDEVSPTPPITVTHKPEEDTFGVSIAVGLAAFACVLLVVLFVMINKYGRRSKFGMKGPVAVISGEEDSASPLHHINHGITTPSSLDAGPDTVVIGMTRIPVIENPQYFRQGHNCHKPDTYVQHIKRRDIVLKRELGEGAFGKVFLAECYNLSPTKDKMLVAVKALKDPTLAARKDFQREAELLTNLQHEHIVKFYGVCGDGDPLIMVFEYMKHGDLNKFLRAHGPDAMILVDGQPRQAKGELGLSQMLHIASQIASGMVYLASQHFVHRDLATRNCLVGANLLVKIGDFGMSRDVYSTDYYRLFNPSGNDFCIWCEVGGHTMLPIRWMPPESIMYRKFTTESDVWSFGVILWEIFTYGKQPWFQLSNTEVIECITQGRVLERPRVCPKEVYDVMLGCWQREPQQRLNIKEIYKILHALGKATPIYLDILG
T4 sequence (P04629 510-796 limits assumed): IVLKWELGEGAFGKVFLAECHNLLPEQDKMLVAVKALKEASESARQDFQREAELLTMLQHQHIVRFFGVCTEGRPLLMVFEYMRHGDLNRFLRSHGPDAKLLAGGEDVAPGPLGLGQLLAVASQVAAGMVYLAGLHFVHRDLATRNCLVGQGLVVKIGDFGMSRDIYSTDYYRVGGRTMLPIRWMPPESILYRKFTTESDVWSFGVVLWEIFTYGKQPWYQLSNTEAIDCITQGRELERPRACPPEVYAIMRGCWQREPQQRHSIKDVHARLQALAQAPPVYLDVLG
T1 sequence (Q16620 538-822 limits assumed): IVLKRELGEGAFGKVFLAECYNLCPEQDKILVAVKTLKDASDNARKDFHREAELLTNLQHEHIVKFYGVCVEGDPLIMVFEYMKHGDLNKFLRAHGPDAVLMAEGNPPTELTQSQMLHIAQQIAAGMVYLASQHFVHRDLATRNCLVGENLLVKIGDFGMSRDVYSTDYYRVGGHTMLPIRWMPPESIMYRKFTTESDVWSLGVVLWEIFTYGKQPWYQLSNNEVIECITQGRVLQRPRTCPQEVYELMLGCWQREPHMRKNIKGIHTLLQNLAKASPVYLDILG

| IC50 (BaF3-ETV6-NTRK2) [µM] | IC50 (BaF3-ETV6-NTRK3) [µM] | IC50 (TRKB) [µM] | IC50 (BaF3-CD74-NTRK1) [µM] | IC50 (TRKA) [µM] | IC50 (TRKC) [µM] | Structure (SMILES) |
| --- | --- | --- | --- | --- | --- | --- |
| 1.97 | 0.477 | 0.0838 | 0.82 | 0.034 | 0.0118 | Fc1cc(F)cc(Cc2ccc3[nH]nc(C#Cc4ccccn4)c3c2)c1 [CCB-484, 5-(3,5-difluorobenzyl)-3-(pyridin-2-ylethynyl)-1H-indazole] |
| 0.165 | 0.0562 | 0.0144 | 0.146 | 0.0046 | 0.0027 | Fc1cc(F)cc(Cc2ccc3[nH]nc(/C=C/c4ccccn4)c3c2)c1 [CCB-489, (E)-5-(3,5-difluorobenzyl)-3-(2-(pyridin-2-yl)vinyl)-1H-indazole] |
| 0.157 | 0.0752 | 0.0109 | 0.126 | 0.004 | 0.0086 | Fc1cc(F)cc(Cc2ccc3[nH]nc(/C=C/c4cccnc4)c3c2)c1 [DYX-03, (E)-5-(3,5-difluorobenzyl)-3-(2-(pyridin-3-yl)vinyl)-1H-indazole] |
| 0.728 | 0.24 | 0.0324 | 0.174 | 0.0218 | 0.0051 | Fc1cc(F)cc(Cc2ccc3[nH]nc(/C=C/c4cccs4)c3c2)c1 [DYX-04, (E)-5-(3,5-difluorobenzyl)-3-(2-(thiophen-2-yl)vinyl)-1H-indazole] |
| 0.678 | 0.419 | 0.0109 | 0.58 | 0.0016 | 0.006 | Fc1cc(F)cc(Cc2ccc3[nH]nc(/C=C/c4cnccn4)c3c2)c1 [DYX-05, (E)-5-(3,5-difluorobenzyl)-3-(2-(pyrazin-2-yl)vinyl)-1H-indazole] |
| 0.723 | 0.492 | 0.0871 | 0.64 | 0.0141 | 0.0774 | Fc1cc(F)cc(Cc2ccc3[nH]nc(/C=C/c4ccc5ccccc5n4)c3c2)c1 [DYX-06, (E)-2-(2-(5-(3,5-difluorobenzyl)-1H-indazol-3-yl)vinyl)quinoline] |
| 0.968 | 0.284 | 0.0403 | 0.211 | 0.0106 | 0.104 | Fc1cc(F)cc(Cc2ccc3[nH]nc(/C=C/c4ccccc4)c3c2)c1 [DYX-07, (E)-5-(3,5-difluorobenzyl)-3-styryl-1H-indazole] |
| 0.0984 | 0.168 | 0.0148 | 0.069 | 0.0106 | 0.0042 | Cc1cccc(/C=C/c2n[nH]c3ccc(Cc4cc(F)cc(F)c4)cc23)n1 [DYX-09, (E)-5-(3,5-difluorobenzyl)-3-(2-(6-methylpyridin-2-yl)vinyl)-1H-indazole] |
| 0.777 | 0.394 | 0.0032 | 0.63 | 0.0092 | 0.0188 | Fc1cc(F)cc(Cc2ccc3[nH]nc(/C=C/c4ccccc4F)c3c2)c1 [DYX-10, (E)-5-(3,5-difluorobenzyl)-3-(2-fluorostyryl)-1H-indazole] |
| 4.7 | 3.03 | 0.321 | 8.31 | 0.1 | 0.095 | C(#Cc1n[nH]c2ccc(Cc3ccccc3)cc12)c1ccccn1 [DYX-014, 5-benzyl-3-(pyridin-2-ylethynyl)-1H-indazole] |
| 3.09 | 2.6 | 0.36 | 4.93 | 0.11 | 0.079 | Fc1ccccc1Cc1ccc2[nH]nc(C#Cc3ccccn3)c2c1 [DYX-021, 5-(2-fluorobenzyl)-3-(pyridin-2-ylethynyl)-1H-indazole] |
| 2.56 | 0.917 | 0.082 | 2.33 | 0.026 | 0.012 | Fc1cccc(Cc2ccc3[nH]nc(C#Cc4ccccn4)c3c2)c1 [DYX-025, 5-(3-fluorobenzyl)-3-(pyridin-2-ylethynyl)-1H-indazole] |
| > 10 | > 10 | > 1 | > 10 | > 1 | > 1 | Fc1ccc(Cc2ccc3[nH]nc(C#Cc4ccccn4)c3c2)cc1 [DYX-027, 5-(4-fluorobenzyl)-3-(pyridin-2-ylethynyl)-1H-indazole] |
| 2.34 | 0.718 | 0.0561 | 1.92 | 0.0145 | 0.012 | Fc1ccccc1Cc1ccc2[nH]nc(/C=C/c3ccccn3)c2c1 [DYX-032, (E)-5-(2-fluorobenzyl)-3-(2-(pyridin-2-yl)vinyl)-1H-indazole] |
| 0.335 | 0.133 | 0.0324 | 0.239 | 0.0093 | 0.0019 | Fc1cccc(Cc2ccc3[nH]nc(/C=C/c4ccccn4)c3c2)c1 [DYX-038, (E)-5-(3-fluorobenzyl)-3-(2-(pyridin-2-yl)vinyl)-1H-indazole] |
| 1.99 | 0.796 | 0.04 | 0.724 | 0.044 | 0.008 | Fc1ccc(F)c(Cc2ccc3[nH]nc(C#Cc4ccccn4)c3c2)c1 [DYX-041, 5-(2,5-difluorobenzyl)-3-(pyridin-2-ylethynyl)-1H-indazole] |
| > 10 | 8.38 | 0.281 | 8.71 | 0.251 | 0.114 | Fc1ccc(Cc2ccc3[nH]nc(/C=C/c4ccccn4)c3c2)cc1 [DYX-042, (E)-5-(4-fluorobenzyl)-3-(2-(pyridin-2-yl)vinyl)-1H-indazole] |
| > 10 | > 10 | > 1 | > 10 | 0.501 | 0.652 | Fc1ccc(Cc2ccc3[nH]nc(C#Cc4ccccn4)c3c2)cc1F [DYX-044, 5-(3,4-difluorobenzyl)-3-(pyridin-2-ylethynyl)-1H-indazole] |
| 0.168 | 0.959 | 0.0153 | 0.803 | 0.0332 | 0.0097 | C(=C\c1n[nH]c2ccc(Cc3ccccc3)cc12)/c1ccccn1 [DYX-048, (E)-5-benzyl-3-(2-(pyridin-2-yl)vinyl)-1H-indazole] |
| > 10 | > 10 | > 1 | > 10 | > 1 | > 1 | Fc1ccc(Cc2ccc3[nH]nc(C#Cc4ccccn4)c3c2)c(F)c1 [DYX-051, 5-(2,4-difluorobenzyl)-3-(pyridin-2-ylethynyl)-1H-indazole] |
| 2.62 | 2.27 | 0.353 |  |  | 0.226 | Fc1cc(F)cc(Nc2ccc3[nH]nc(/C=C/c4ccccn4)c3c2)c1 [DYX-105, (E)-N-(3,5-difluorophenyl)-3-(2-(pyridin-2-yl)vinyl)-1H-indazol-5-amine] |
| > 10 | > 10 | > 1 | > 10 | 0.598 |  | Fc1cc(F)cc(C#Cc2ccc3[nH]nc(/C=C/c4ccccn4)c3c2)c1 [DYX-183, (E)-5-((3,5-difluorophenyl)ethynyl)-3-(2-(pyridin-2-yl)vinyl)-1H-indazole] |
| 0.61 | 0.156 |  | 0.0689 |  |  | O=S(=O)(c1cc(F)cc(F)c1)c1ccc2[nH]nc(/C=C/c3ccccc3F)c2c1 [Example E01F10, (E)-5-((3,5-difluorophenyl)sulfonyl)-3-(2-fluorostyryl)-1H-indazole] |
